Experimental data published in patent US20250235533A1, “INJECTABLE PROLONGED-RELEASE HYDROGEL FORMULATIONS OF TOLL-LIKE RECEPTOR AGONISTS FOR INTRATUMORAL INJECTION TO INCREASE IMMUNOTHERAPY RESPONSE” (priority 2024, published 2025).
One block for each compound: values may come before it.

Assays:
In vitro release studies = assay type: physicochemical
Procedure: Drug release kinetics of imiquimod from various […] formulations were studied by placing aliquots of drug-loaded hydrogel into 50 mL conical tubes at 100 rpm at 37° C., releasing drug into DPBS. 50 μL of […] were added to the bottom of 50 mL conical Falcon tubes or in a dialysis tubing (D-tube Dialyzer Maxi, MWCO 3.5 kDa) at room temperature and brought to gel state by incubating at 37° C. for 30 min while DPBS as receiving fluid was preheated at the same temperature. After […] solidified, 50 mL DPBS (pH 7.4), Lactated […]), or Acetate Buffer (pH 5, 0.03 m Acetic acid, and 0.07 m Sodium Acetate in DI water) were added slowly to the conical tubes. These containers were then incubated at 37° C. under shaking at 100 rpm. 400 μL samples were taken from the receiving fluid with a 1 mL syringe through 0.2 μm filters (PALL super membrane low protein binding non-pyrogenic) to avoid accidental removal of gel. Concentration of imiquimod in the samples was assessed eluting the samples on an Agilent 1100 high-performance liquid chromatography (HPLC) with UV detector at 242 nm over an Eclipse XD8-C18 column (150×4.6 mm, 3.5 μm pore size) with an acetonitrile/water gradient from 5/95 to 95/5 over 6 min at 1 mL mi-1 n. […] Concentrations were calculated from UV signals using a calibration curve of known concentration imiquimod standards in DMSO/Acetonitrile.

[1] = Solubility / encapsulation of immunoadjuvant in PLGA-PEG-PLGA micelles; assay type: physicochemical
Procedure: Typically, 1 g of PLGA-PEG-PLGA was dissolved in 4 ml 0.9% saline solution (Baxter, Deerfield, IL) to obtain a 25% weight/volume (w/v) concentration at 4° C. over 2 days and vortexed/stirred daily. Importantly, the normal saline cannot contain the preservative phenol, commonly found in preservative containing commercial saline solutions. After a homogeneous hydrogel solution was observed by stirring with a spatula, imiquimod was added at 24 mg to the batch, the dispersion was vortexed and allowed to dissolve at room temperature over 2 days. Some of the gels received Iopamidol as contrast agent at 100 mg mL^−1, which was left to disperse or dissolve over 1 day. The resulting Imigel or Imigel+Iopamidol was stored at room temperature, shielded from evaporation, and used within 1 week from full dissolution to prevent hydrolysis. (FIGS. 3A-3E).

CT-26 tumors = assay: Dual tumor model survival study, CT-26; assay type: in vivo, balb/c mice; settings: CT-26 model
Procedure: Per experimental arm 10-15 Balb c^−1 mice were injected with approximately 10^6 cells of CT-26 or EMT-6 cells, day 0 (FIG. 6) in bilateral flanks. Immunotherapy (anti-PD-1 (3.9 mg mL^−1), anti-CTLA-4 (2.2 mg mL^−1) co-immunotherapy was given intraperitoneally (Sigma-Aldrich) every 3 days from day 3-12. Mice with primary and contralateral tumors of at least 6 mm were chosen to be randomized to various treatment arms evaluating CPI with and without cryoablation, imiquimod drug-only injection, PLGA-PEG-PLGA only injection, or imigel (3:1) injection. The imigel, gel alone, or serial imiquimod suspensions were injected as 50 μL injections using a 26-gauge needle. For cryoablation, parameters included a 30 s freeze, followed by 2 min thaw, followed by a 30 s freeze with goal of approximately 50% tumoral freezing. When using cryoablation, the drug formulations were injected 5 min post final freeze, with a mild pause during injection to ensure no push back via the tract into the remaining viable tumor. Imiquimod alone was prepared as a suspension by 30 min of sonication at 1 mg mL^−1 in normal saline. Injections for imiquimod alone were done as a total 50 μL 1 mg mL^−1 injections once per day for six total doses. Specifically, Imigel delivered a total of 300 μg in one injection in two 25 μL injection depots within the tumor at the same injection session for only one session. […]

[2] = system: CD8+ T cells in CT-26 tumors; assay: Intratumoral flow cytometry, CT-26 model; assay type: in vivo, mice; settings: compared to CPI only
Procedure: Additional groups of 4 mice were injected with CT-26 and treated as above. 6 days post local intervention, mice were euthanized, and ipsilateral and contralateral tumors excised. In all cases of this example, tumor samples were minced and then incubated in a collagenase solution (1 mg mL^−1 in RPMI—1640) for approximately 45 min at 37° C. Tumors were processed into a single cell suspension using a 70 μm cell strainer.
For flow cytometry, using the cells harvested as above, cell viability was assessed by trypan blue staining, and 1×10^6 viable cells were stained for flow cytometry analysis. Cells were washed with PBS and stained with a 1:1000 solution of ZOMBIE Aqua (from […], Biolegend) and incubated on ice for 15 min. […] Cells were resuspended in cell staining buffer, and the samples were analyzed on an Aurora (Cytek Biotechnology). […] Gating for individual markers was determined by fluorescent minus one (FMO) control panels and unstained controls. […]

[3] = cited from earlier work

SMILES: O=S(=O)([O-])[O-].[Ba+2] [barium sulfate]
effect on release profile of imiquimod from injectable composition (In vitro release studies; phosphate buffer solution at 37 degrees C): does not significantly change the release profile of imiquimod

SMILES: CC(C)Cn1cnc2c(N)nc3ccccc3c21 [imiquimod]
solubility at 2 days ([1]; PLGA1.5k-PEG1.5k-PLGA1.5k micelles (hydrogel solution), aqueous with cosolvent or surfactant or cyclodextrin, thermodynamic from solid, in PLGA1.5k-PEG1.5k-PLGA1.5k micelles, read-out: concentration uniformly solubilized): ~6000 µg/mL
increase of aqueous solubility ([1]; encapsulated in micellar structure of PLGA-PEG-PLGA): approximately 2000 fold
90-day survival (CT-26 tumors; serial imiquimod (6 daily injections) with CPI and cryoablation): 46.7%
90-day survival (CT-26 tumors; serial imiquimod (6 daily injections) with CPI, no cryoablation): 57%
percentage of activated CD8+ T cells (dual CD44+PD1+ among CD8+ T-cells) [2]: significant increase
solubility in saline [3]: around 0.002 mg mL^−1

encapsulation ([1]; motolimod in PLGA-PEG-PLGA injectable composition): around 6 mg/mL
release profile of motolimod (In vitro release studies; into PBS, PLGA-PEG-PLGA 1600-1500-1600 and 1500-1500-1500): relatively extended
SMILES: CCCN(CCC)C(=O)C1=Cc2ccc(-c3ccc(C(=O)N4CCCC4)cc3)cc2N=C(N)C1 [motolimod]
